Measurements from paper PMC11551755, “Structure-based discovery of first inhibitors targeting the helicase activity of human PIF1” (Nucleic Acids Research, 2024).
Where “and” joins values, the source holds several entries; their conditions need not be identical. Equal values may be shown once. Read-outs that look alike come from different tables or passages of the source.

How the values were obtained:
[1] = biological target: T1, FLhPIF1 (full length human PIF1) (Homo sapiens, UniProt Q9H611); assay: radiometric strand displacement helicase assay, no pre-incubation; format: biochemical; details: for inhibition at 1000 µM: 1 mM single point, gel-based DNA unwinding assay, four repeats (S4 n=3); for IC50: n = 3
T1 construct: Full length human PIF1 (FLhPIF1) was expressed and purified as a His-SUMO fusion; His-SUMO (cleaved yes); made in house; 'following similar protocols' to hPIF1HD (ArcticExpress BL21(DE3) E. coli)
T1 sequence (Q9H611 1-641): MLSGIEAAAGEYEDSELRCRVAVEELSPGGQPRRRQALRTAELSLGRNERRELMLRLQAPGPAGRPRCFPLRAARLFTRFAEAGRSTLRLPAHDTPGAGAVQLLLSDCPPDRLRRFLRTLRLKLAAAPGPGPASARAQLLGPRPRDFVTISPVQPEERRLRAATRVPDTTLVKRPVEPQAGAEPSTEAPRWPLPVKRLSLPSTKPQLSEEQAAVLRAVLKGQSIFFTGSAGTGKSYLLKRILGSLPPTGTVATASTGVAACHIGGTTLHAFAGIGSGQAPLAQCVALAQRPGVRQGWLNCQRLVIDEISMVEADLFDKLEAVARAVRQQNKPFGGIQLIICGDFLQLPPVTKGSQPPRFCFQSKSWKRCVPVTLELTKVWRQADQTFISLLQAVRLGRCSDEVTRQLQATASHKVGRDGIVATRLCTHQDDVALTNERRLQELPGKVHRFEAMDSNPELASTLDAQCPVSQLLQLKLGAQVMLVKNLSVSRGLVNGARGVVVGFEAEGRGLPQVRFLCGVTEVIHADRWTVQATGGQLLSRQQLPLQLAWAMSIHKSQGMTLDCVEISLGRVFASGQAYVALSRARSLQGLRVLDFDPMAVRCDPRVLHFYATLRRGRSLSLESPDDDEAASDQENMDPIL
Experimental: Helicase activity was assayed using a radiometric strand displacement assay employing a partially single- and double-stranded substrate generated by annealing two oligonucleotides: 5′-(T)55-[…] and 5′-[…], as described previously ([19],[28]). […] SMIs (100 mM stocks in DMSO) were assayed at up to 2 mM without pre-incubation with FLhPIF1, unless otherwise stated. […] Dried gels were exposed to phosphorimaging plates (Fujifilm) for imaging and quantification (Fuji FLA3000, image gauge V3.3 software). IC50 values were analysed by non-linear regression (variable slope) using GraphPad Prism.

FLhPIF1 = biological target: T2, FLhPIF1 (Homo sapiens, UniProt Q9H611); assay: helicase assay after pre-incubation of SMI with FLhPIF1; format: biochemical
T2 construct: Full length human PIF1 (FLhPIF1) was expressed and purified as a His-SUMO fusion; His-SUMO (cleaved yes); made in house; 'following similar protocols' to hPIF1HD (ArcticExpress BL21(DE3) E. coli)
T2 sequence (Q9H611 1-641): T1 sequence (Q9H611 1-641)
Experimental: Helicase activity was assayed using a radiometric strand displacement assay employing a partially single- and double-stranded substrate generated by annealing two oligonucleotides: 5′-(T)55-[…] and 5′-[…], as described previously ([19],[28]). The reaction buffer was 20 mM HEPES–NaOH pH 7.5, 20 mM NaCl, 5.5 mM MgCl2, 5 mM ATP, 1 mM DTT and 0.1 mg/ml BSA. SMIs (100 mM stocks in DMSO) were assayed at up to 2 mM without pre-incubation with FLhPIF1, unless otherwise stated. Reactions (0.1 nM substrate) were incubated at 37°C for 20 min, followed by addition of 0.2 volumes of 120 mM EDTA, 0.6% (w/v) SDS, 60% (v/v) glycerol and 0.1% (w/v) bromophenol blue before resolution of products by polyacrylamide gel electrophoresis (8%, 19:1 acrylamide:bis-acrylamide), 1× TBE (90 mM Tris–borate/2 mM EDTA, pH 8.3 with 0.05% (w/v) SDS buffer). Dried gels were exposed to phosphorimaging plates (Fujifilm) for imaging and quantification (Fuji FLA3000, image gauge V3.3 software). IC50 values were analysed by non-linear regression (variable slope) using GraphPad Prism.
First, we screened inhibitory activity of the SMIs listed in Table 1, following incubation of 100 nM FLhPIF1 with 100 μM SMI for 1 h at 22°C in the absence of substrates (ATP and DNA), before a 1:10 dilution into helicase reactions. […] Next, compounds 2, 5, 6 and 11, along with 4 and 1D were selected for analysis in a pre-incubation time-course (100 nM FLhPIF1, 100 μM SMI), up to 3 h before assaying helicase activity.
In parallel, IC50 values for inhibition of human UPF1 (hUPF1) helicase activity by the SMIs were also determined under the same conditions. UPF1-like SF1B helicases are the most closely related family of helicases to PIF1, with significant structural and mechanistic similarity ([52]).
Figure 6. SMI IC50 for dsDNA unwinding determined following pre-incubation. SMIs (0.0078–2 mM SMI) were incubated for 2 h at 22°C (100 nM FLhPIF1 or hUPF1) before dilution (1:10) in the standard helicase assay (0.1 nM DNA substrate). For 1D and 6, structures, electrophoresis of FLhPIF1 reaction product and graphs for IC50 value determination are shown. The graphed data include the activity of SMIs towards hUPF1 and IC50 values obtained are given. See Supplementary Figure S14 for the complete data set. TEXT PRINTED IN THE PICTURE: 1D: IC50 (μM): PIF1: 978 ± 221; IC50 (μM): UPF1: N.D. | 6: IC50 (μM): PIF1: 79.4 ± 16; IC50 (μM): UPF1: 1750 ± 426

[2] = 0.0078–2 mM compound, 10 nM FLhPIF1, 0.1 nM DNA substrate, no pre-incubation, read-out: IC50 for inhibition of FLhPIF1 helicase activity

Row | SMILES | inhibition at 1000 µM [1] | also measured
1 | COC(=O)c1cccc(-c2csc(N)n2)c1 [S12] | -11 ± 1% | 
2 | Nc1nc(-c2ccc(OC(F)(F)F)cc2)cs1 [S11] | 58.3 ± 9.1% | 
3 | CNCCNc1cc(-c2csc(N)n2)ccc1[N+](=O)[O-] [Compound 8] | 77.8 ± 7.9% | IC50 [1, 2]: 176 ± 6 µM
4 | CCCNC(=O)c1cccc(-c2csc(N)n2)c1 [S13] | 0.2 ± 1.4% | 
5 | Nc1nc(-c2ccc(Oc3ccccc3)cc2)cs1 [S17] | 61.7 ± 8.2% | 
6 | CC(=O)Nc1ccc(-c2csc(N)n2)cc1N1CCN(C)CC1 [S49] | 24.3 ± 5.9% | 
7 | CC(=O)Nc1ccc(-c2csc(NC(C)=O)n2)cc1 [Compound 7] | 57 ± 14.7% | fold increase in inhibition at 1 mM relative to compound 1 ([1]; 1 mM single point helicase screen): 4 fold; IC50 [1, 2]: 569 ± 139 µM
8 | Nc1nc(-c2ccc([N+](=O)[O-])cc2)cs1 [Compound 3] | 85.6 ± 5.1% | IC50 [1, 2]: 184 ± 13 µM
9 | CCN(CC)C(=O)c1ccc(-c2csc(N)n2)cc1 [S14] | -4.6 ± 2.8% | 
10 | CC(=O)Nc1ccc(-c2csc(C)n2)cc1 [S2] | -3 ± 2.8% | inhibition of FLhPIF1 helicase activity in 1 mM single-point screen [1]: only minimal activity
11 | CNc1nc(-c2ccc(NC(C)=O)cc2)cs1 [S3] | -6.4 ± 2% | 
12 | CC(=O)Nc1ccc(-c2csc(N)n2)cc1 [Compound 1E] |  | helicase inhibitory activity compared to commercial batches 1A–1C ([1]; 0.0078-2 mM, no pre-incubation): significantly lower inhibitory activities
13 | Cc1ccc(-c2csc(N)n2)cc1 [S8] | 43.9 ± 5.7% | inhibition of FLhPIF1 helicase activity in 1 mM single-point screen [1]: incapable of inhibiting FLhPIF1 helicase activity effectively
14 | N#Cc1cccc(-c2csc(N)n2)c1 [S9] | -12.6 ± 4.6% | 
15 | CNC(=O)c1ccc(-c2csc(N)n2)cc1 [S15] | 37.9 ± 4.3% | 
16 | CCOc1ccc(-c2csc(N)n2)cc1 [S16] | 25.9 ± 3.2% | 
17 | Cc1cccc(-c2csc(N)n2)c1 [S7] | -8.1 ± 1.9% | 
18 | COc1nc(-c2ccc(NC(C)=O)cc2)cs1 [S4] | 9.6 ± 2.8% | inhibition of FLhPIF1 helicase activity in 1 mM single-point screen [1]: only minimal activity
19 | CC(=O)Nc1ccc(-c2csc(N)n2)cc1 [Compound 1F] | 14.2 ± 7% | IC50 [1, 2]: ~1160 µM and 1160 µM; IC50 ([1]; no pre-incubation, value with large error, read-out: IC50 against FLhPIF1 helicase): ~1200 µM
20 | Nc1nc(-c2cccc(OC(F)(F)F)c2)cs1 [S10] | 59.5 ± 1.7% | 
21 | COC(=O)c1ccc(-c2csc(N)n2)cc1 [Compound 4] | 72.4 ± 4.5% | IC50 [1, 2]: 78 ± 4 µM; IC50 (FLhPIF1; 2 h pre-incubation at 22°C with 100 nM FLhPIF1, then 1:10 dilution into helicase assay, read-out: IC50 for dsDNA unwinding by FLhPIF1 following pre-incubation): 300 ± 66 µM; increase in inhibition of FLhPIF1 DNA unwinding after pre-incubation (FLhPIF1; 3 h pre-incubation, 100 nM FLhPIF1, 100 μM SMI): 5–10%
22 | CC(=O)Nc1ccc(-c2csc(N)n2)cc1N1CCNCC1 [Compound 9] | 69.1 ± 5.5% | IC50 [1, 2]: 307 ± 16 µM

Second part, led by results:

Row | inhibition at 1000 µM [1] | SMILES | also measured
23 | 24.6 ± 8.9% | CCN(CC)c1cc(-c2csc(N)n2)ccc1NC(C)=O [S47] | 
24 | 11.5 ± 3.7% | CC(=O)Nc1ccc(-c2csc(N)n2)cc1N1CCOCC1 [S48] | 
25 | 35.9 ± 9.9% | COC(=O)Cc1ccc(-c2csc(N)n2)cc1 [S20] | 
26 | 50 ± 4.2% | CC(=O)Nc1ccc(-c2csc(N)n2)cc1OC1CCCC1 [S51] | 
27 | 46.6 ± 15.5% | CS(=O)(=O)c1ccc(-c2csc(N)n2)cc1 [S19] | 
28 | -17.3 ± 4.2% | Nc1nc(-c2ccc(S(N)(=O)=O)cc2)cs1 [S21] | 
29 | -17.3 ± 5% | CC(=O)Nc1ccc(-c2csc(N)n2)cc1-c1cccnc1 [S55] | inhibition of FLhPIF1 helicase activity in 1 mM single-point screen [1]: did not display any inhibitory activity at all
30 | 42.5 ± 13.5% | CC(=O)Nc1ccc(-c2csc(N)n2)cc1C(C)O (centres unmarked) [S25] | 
31 | 22.1 ± 5% | COc1cc(-c2csc(N)n2)ccc1NC(C)=O [S50] | 
32 | -6.7 ± 7.3% | Nc1nc(-c2ccc(-c3ccccc3)cc2)cs1 [S18] | inhibition of FLhPIF1 helicase activity in 1 mM single-point screen [1]: incapable of inhibiting FLhPIF1 helicase activity effectively
33 | 10.4 ± 3.3% | CC(=O)Nc1ccc(-c2csc(N)n2)cc1C(C)=O [S24] | 
34 | -16.9 ± 4.5% | CC(=O)Nc1ccc(-c2csc(N)n2)cc1-c1cnn(C)c1 [S56] | inhibition of FLhPIF1 helicase activity in 1 mM single-point screen [1]: did not display any inhibitory activity at all
